Assays:
[1] = biological target: T1, TLR6 (Homo sapiens, UniProt Q9Y2C9, P680H); assay: TNF-α production by THP-1 cells transfected with TLR6DN vs vector control; type: cell-based
T1 construct: expressed in transfected cells; host or cells: THP-1 (pIRES vector)
Excerpt: The human TLR6 dominant negative construct was generated from human PBMC cDNA using the same strategy as the murine TLR6 dominant negative. The proline to histidine mutation for human TLR6 was introduced at amino acid 680 along with an Apa LI restriction enzyme site (5′ sense: SEQ ID NO 5; 5′ antisense: SEQ ID NO 6; 3′ sense: SEQ ID NO 7; 3′ antisense: SEQ ID NO 8).
The amplified 5′ and 3′ sections of each human dominant negative TLR was inserted into pCR-Blunt II-TOPO for sequence verification. The 5′ and 3′ sections were joined together when subcloned into pIRES (Clontech, Palo Alto, Calif.) for expression in mammalian cells.
THP-1 cells (maintained at cell number less than 1×10^6 cells/ml) were co-transfected with the plamid vector containing either the TLR6DN or TLR7DN construct and with a murine H2K^k plasmid (Miltenyi Biotec Inc., Auburn, Calif.) in a 4:1 ratio of TLR plasmid to H2K^k plasmid. Transfection of THP-1 cells was carried out using the transfection reagent FuGENE 6 (Roche Diagnostics Corp., Indianapolis, Ind.) according to the manufacturer's specifications. […]
(§1) TNF-α levels were measured with a commercial Human TNF-α ELISA kit (Biosource International, Inc., Camarillo, Calif.) according to the manufacturer's specifications. […]

[2] = biological target: T2, TLR6 (Mus musculus, UniProt Q9EPW9, P680H); assay: TNF-α production by RAW 264.7 cells transfected with TLR6DN; type: cell-based
T2 construct: expressed in transfected cells; host or cells: RAW 264.7 (pIRES vector)
Excerpt: A murine TLR6 dominant negative construct was generated by PCR mutation during amplification from RAW 264.7 cell cDNA. The 5′ and 3′ regions flanking a codon encoding proline 691 were amplified with primers (5′ sense: SEQ ID NO 1; 5′ antisense: SEQ ID NO 2; 3′sense: SEQ ID NO 3; 3′ antisense: SEQ ID NO 4) that changed the codon for proline 691 to a codon encoding histidine while introducing a unique Apa LI restriction enzyme site at the position of the mutation. The 5′ and 3′ sections of the TLR6 were amplified by Pfu Turbo DNA polymerase kit (Stratagene, La Jolla, Calif.). The PCR sections were inserted into pCR-Blunt II-TOPO for sequence verification. The two sections were joined together when subcloned into pIRES (Clontech, Palo Alto, Calif.) for expression in mammalian cells.
RAW 264.7 cells were co-transfected with a truncated human CD4 for RAW 264.7 cells in a 4:1 ratio of TLR plasmid to CD4 plasmid. Transfection of RAW 264.7 cells was carried out using the transfection reagent DoTaP (Roche Diagnostics Corp., Indianapolis, Ind.) according to the manufacturer's specifications. […]
as §1

[3] = biological target: T3, TLR6 (Mus musculus, UniProt Q9EPW9); assay: IRM-stimulated TNF-α production by RAW 264.7 cells overexpressing TLR6; type: cell-based, murine
T3 construct: expressed in transfected cells; host or cells: RAW 264.7 (pIRES vector)
Excerpt: The murine TLR wild-type vectors were generated by PCR amplification from RAW 264.7 cell cDNA with TLR6 specific primers (sense primer: SEQ ID NO 13; antisense primer: SEQ ID NO 14) or TLR7 specific primers (sense primer: SEQ ID NO 15; antisense primer: SEQ ID NO 16) by Pfu Turbo DNA polymerase kit (Stratagene, La Jolla, Calif.). The PCR products were inserted into pCR-Blunt II-TOPO for sequence verification and then subcloned into pIRES (BD Biosciences Clontech, Palo Alto, Calif.) for expression in mammalian cells.
THP-1 cells or RAW 264.7 cells were cultured and transfected with the wild type TLR 6 or wild type TLR 7 plasmids described above. The transfections were performed as in Example 1 with a 4:1 ratio of wild-type TLR to H2K plasmid (THP-1 cells) or CD4 (RAW 264.7 cells).
RAW 264.7 cells were stimulated with various concentrations of resiquimod and analyzed as described in Example 1. Results are provided in Table 4 and are expressed as fold increase in TNF-α production as compared to control transfected RAW 264.7 cells.

T3 sequence (Q9EPW9 28-795): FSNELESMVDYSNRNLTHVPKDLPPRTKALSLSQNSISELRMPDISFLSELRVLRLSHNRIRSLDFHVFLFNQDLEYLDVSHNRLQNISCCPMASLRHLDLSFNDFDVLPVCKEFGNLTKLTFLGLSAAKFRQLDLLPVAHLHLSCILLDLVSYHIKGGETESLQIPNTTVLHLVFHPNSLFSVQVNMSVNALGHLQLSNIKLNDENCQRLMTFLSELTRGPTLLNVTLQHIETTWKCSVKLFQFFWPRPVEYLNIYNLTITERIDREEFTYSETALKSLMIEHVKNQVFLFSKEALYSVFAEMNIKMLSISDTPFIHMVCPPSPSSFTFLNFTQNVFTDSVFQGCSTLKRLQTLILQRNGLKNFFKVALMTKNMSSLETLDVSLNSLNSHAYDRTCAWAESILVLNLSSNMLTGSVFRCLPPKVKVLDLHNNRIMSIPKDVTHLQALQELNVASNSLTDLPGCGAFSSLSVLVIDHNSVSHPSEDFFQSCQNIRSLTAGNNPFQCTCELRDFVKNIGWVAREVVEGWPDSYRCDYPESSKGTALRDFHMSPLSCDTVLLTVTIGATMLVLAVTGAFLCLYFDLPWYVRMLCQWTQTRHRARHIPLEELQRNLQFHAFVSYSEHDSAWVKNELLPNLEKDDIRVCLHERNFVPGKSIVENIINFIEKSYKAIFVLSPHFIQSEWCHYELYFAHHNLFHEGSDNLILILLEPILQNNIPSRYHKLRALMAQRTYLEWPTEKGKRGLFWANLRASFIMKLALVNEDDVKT
T3 sequence (Q9QUN7 25-784 partner): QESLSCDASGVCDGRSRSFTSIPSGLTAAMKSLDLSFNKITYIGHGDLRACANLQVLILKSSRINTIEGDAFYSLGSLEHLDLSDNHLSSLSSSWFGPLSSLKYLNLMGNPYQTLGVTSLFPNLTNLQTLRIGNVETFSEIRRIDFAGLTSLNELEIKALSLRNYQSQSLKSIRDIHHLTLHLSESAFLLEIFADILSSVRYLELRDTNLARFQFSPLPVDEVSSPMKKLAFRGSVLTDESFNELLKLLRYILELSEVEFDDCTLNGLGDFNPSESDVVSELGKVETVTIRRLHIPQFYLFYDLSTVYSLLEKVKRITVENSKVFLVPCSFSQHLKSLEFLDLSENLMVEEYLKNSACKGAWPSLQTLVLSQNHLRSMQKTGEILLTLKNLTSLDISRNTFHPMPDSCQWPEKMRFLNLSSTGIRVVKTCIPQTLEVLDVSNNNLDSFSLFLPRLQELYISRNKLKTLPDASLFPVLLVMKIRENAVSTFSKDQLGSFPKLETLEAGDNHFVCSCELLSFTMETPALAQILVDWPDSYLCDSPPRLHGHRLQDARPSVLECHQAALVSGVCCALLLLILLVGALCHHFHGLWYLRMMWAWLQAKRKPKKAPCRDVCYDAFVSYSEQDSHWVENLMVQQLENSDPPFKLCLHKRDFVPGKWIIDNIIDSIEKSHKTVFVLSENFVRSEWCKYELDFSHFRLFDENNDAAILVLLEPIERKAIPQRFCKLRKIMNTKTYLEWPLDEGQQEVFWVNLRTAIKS
T2 sequence (Q9EPW9 28-795 P680H): as the sequence (Q9EPW9 28-795) above, with P653H counted along it
T2 sequence (Q9QUN7 25-784 partner): as the sequence (Q9QUN7 25-784 partner) above
T1 sequence (Q9Y2C9 32-796 P680H): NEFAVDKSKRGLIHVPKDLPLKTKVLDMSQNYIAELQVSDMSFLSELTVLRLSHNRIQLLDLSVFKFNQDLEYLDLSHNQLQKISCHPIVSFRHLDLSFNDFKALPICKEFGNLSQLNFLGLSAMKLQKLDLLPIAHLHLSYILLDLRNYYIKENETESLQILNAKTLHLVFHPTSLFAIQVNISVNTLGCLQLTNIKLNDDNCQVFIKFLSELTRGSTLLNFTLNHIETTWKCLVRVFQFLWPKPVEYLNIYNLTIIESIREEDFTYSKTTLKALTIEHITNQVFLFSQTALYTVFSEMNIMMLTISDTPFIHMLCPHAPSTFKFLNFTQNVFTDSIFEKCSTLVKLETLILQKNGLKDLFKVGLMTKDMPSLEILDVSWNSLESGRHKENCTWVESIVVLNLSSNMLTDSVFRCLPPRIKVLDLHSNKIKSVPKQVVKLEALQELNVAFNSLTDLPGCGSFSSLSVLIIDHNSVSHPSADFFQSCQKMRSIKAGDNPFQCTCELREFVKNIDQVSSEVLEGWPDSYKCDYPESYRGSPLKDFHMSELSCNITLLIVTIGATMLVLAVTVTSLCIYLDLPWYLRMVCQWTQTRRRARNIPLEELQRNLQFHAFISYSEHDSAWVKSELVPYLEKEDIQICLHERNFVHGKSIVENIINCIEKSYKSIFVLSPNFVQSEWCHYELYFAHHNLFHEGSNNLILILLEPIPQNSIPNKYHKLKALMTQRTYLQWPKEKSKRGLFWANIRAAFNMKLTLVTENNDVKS
T1 sequence (O60603 19-784 partner limits assumed): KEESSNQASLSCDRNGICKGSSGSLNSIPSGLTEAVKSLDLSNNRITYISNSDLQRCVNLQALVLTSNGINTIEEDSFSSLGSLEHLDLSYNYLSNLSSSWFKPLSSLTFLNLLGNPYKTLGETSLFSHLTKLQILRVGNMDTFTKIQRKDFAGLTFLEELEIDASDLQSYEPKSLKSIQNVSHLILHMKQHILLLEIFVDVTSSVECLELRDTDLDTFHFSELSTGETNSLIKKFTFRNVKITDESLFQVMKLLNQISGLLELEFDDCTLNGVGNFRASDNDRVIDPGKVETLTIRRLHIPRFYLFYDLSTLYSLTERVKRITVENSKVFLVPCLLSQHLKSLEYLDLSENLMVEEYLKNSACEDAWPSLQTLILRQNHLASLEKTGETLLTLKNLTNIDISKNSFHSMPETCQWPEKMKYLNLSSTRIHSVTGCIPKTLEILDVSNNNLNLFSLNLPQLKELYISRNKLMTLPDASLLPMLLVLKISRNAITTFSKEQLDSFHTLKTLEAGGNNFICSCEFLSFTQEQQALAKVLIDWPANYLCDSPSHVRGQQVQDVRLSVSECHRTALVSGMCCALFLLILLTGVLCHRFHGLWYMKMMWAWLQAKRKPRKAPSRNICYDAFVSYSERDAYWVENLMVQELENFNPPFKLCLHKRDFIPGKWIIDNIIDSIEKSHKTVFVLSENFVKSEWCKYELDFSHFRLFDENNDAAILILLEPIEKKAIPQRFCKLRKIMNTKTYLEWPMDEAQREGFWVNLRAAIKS

## CCOCc1nc2c(N)nc3ccccc3c2n1CC(C)(C)O [Resiquimod, 4-amino-2-ethoxymethyl-α,α-dimethyl-1H-imidazo[4,5-c]quinoline-1-ethanol]
[1]; compared to control vector
  Effect of TLR6DN on stimulus-induced TNF-α production (in words): inhibited
[1]; stimulus 3 μM, 18 hours, relative to vector control
  TLR6DN % inhibition of TNF-α production: 70.1%
[2]; compared with stimulation by LPS
  Effect of TLR6DN on stimulus-induced TNF-α production (in words): inhibited to a much greater extent
[2]; stimulus 3 μM
  % inhibition of TNF-α production (TLR6DN): 70.9%
[3]; RAW 264.7 overexpressing TLR6, 0.0004 μM
  Fold increase in TNF-α production over control, TLR6: 9.6 fold
[3]; RAW 264.7 overexpressing TLR6, 0.001 μM
  Fold increase in TNF-α production over control, TLR6: 8.0 fold
[3]; RAW 264.7 overexpressing TLR6, 0.004 μM
  Fold increase in TNF-α production over control, TLR6: 9.2 fold
[3]; RAW 264.7 overexpressing TLR6, 0.012 μM
  Fold increase in TNF-α production over control, TLR6: 3.5 fold
[3]; RAW 264.7 overexpressing TLR6, 0.037 μM
  Fold increase in TNF-α production over control, TLR6: 3.9 fold
[3]; RAW 264.7 overexpressing TLR6, 1 μM
  Fold increase in TNF-α production over control, TLR6: 1.4 fold
[3]; RAW 264.7 overexpressing TLR6, 3 μM
  Fold increase in TNF-α production over control, TLR6: 1.7 fold
[3]; RAW 264.7 overexpressing TLR6, 10 μM
  Fold increase in TNF-α production over control, TLR6: 1.8 fold
[3]; from TLR6 overexpression in RAW 264.7 cells
  TLR6 agonist character (in words): agonist
